Reference: patent publication US20250154131A1 (HAINAN SIMCERE PHARMACEUTICAL CO., LTD., priority 2021, published 2025)

Target: SARS-COV-2 3CL Protease (Severe acute respiratory syndrome coronavirus 2 (2019-nCoV) (SARS-CoV-2), UniProt P0DTD1)
Assay: biochemical
Format: biochemical
Conditions: recombinant MBP-tagged 3CL protease, 30 min preincubation

| SMILES | IC50 (class symbol column) | IC50 (numeric column) |
| --- | --- | --- |
| CC1(C)[C@@H]2[C@@H](C(=O)N[C@H](C#N)C[C@@H]3CCNC3=O)N(C(=O)C(NC(=O)C(F)(F)F)C3CC4(CCC4)C3)C[C@@H]21 (stereo partly drawn) [Compound 3, (1R,2S,5S)—N—((S)-1-cyano-2-((S)-2-carbonylpyrrolidin-3-yl)ethyl)-6,6-dimethyl-3-(2-(spiro[3.3]heptan-2-yl)-2-(2,2,2-trifluoroacetamido)acetyl)-3-azabicyclo[3.1.0]hexane-2-carboxamide] | 100 to 1000 nM | 525 nM |
| CC1(C)[C@@H]2[C@@H](C(=O)N[C@H](C#N)C[C@@H]3CCNC3=O)N(C(=O)[C@H](Cc3ccc4ccccc4c3)NC(=O)C(F)(F)F)C[C@@H]21 [Compound 4, (1R,2S,5S)—N—((S)-1-Cyano-2-((S)-2-carbonylpyrrolidin-3-yl)ethyl)-6,6-dimethyl-3-((S)-3-(naphthalen-2-yl)-2-(2,2,2-trifluoroacetamido)propanoyl)-3-azabicyclo[3.1.0]hexane-2-carboxamide] | 100 to 1000 nM | 273 nM |
| CC1(C)[C@@H]2[C@@H](C(=O)N[C@H](C#N)CC3C(=O)Nc4ccccc43)N(C(=O)[C@@H](NC(=O)C(F)(F)F)C34CC5CC(CC(O)(C5)C3)C4)C[C@@H]21 (stereo partly drawn) [Compound 5, (1R,2S,5S)—N-((1S)-1-Cyano-2-(2-carbonylindolin-3-yl)ethyl)-3-((S)-2-((1r,3R,5R,7S)-3-hydroxyadamantan-1-yl)-2-(2,2,2-trifluoroacetamido)acetyl)-6,6-dimethyl-3-azabicyclo[3.1.0]hexane-2-carboxamide] | < 100 nM | 69.8 nM |
| CN(C)C1CCC(C(NC(=O)C(F)(F)F)C(=O)N2C[C@H]3[C@@H]([C@H]2C(=O)N[C@H](C#N)C[C@@H]2CCNC2=O)C3(C)C)CC1 (stereo partly drawn) [Compound 6, (1R,2S,5S)—N—((S)-1-cyano-2-((S)-2-oxopyrrolidin-3-yl)ethyl)-3-(2-(4-(dimethylamino)cyclohexane)-2-(2,2,2-trifluoroacetamido)acetyl)-6,6-dimethyl-3-azabicyclo[3.1.0]cyclohexane-2-carboxamide] | 100 to 1000 nM | 449 nM |
| CN(C)CCCC[C@H](NC(=O)C(F)(F)F)C(=O)N1C[C@H]2[C@@H]([C@H]1C(=O)N[C@H](C#N)C[C@@H]1CCNC1=O)C2(C)C [Compound 7, (1R,2S,5S)—N—((S)-1-cyano-2-((S)-2-oxopyrrolidin-3-yl)ethyl)-3-(N^6,N^6-dimethyl-N^2-(2,2,2-trifluoroacetyl)-L-lysyl)-6,6-dimethyl-3-azabicyclo[3.1.0]cyclohexane-2-carboxamide] | 1000 to 10000 nM | 1110 nM |
| CC(C)(C)[C@H](NC(=O)C(F)(F)F)C(=O)N1C[C@H]2[C@@H]([C@H]1C(=O)N[C@H](C#N)CC1C(=O)Nc3ncccc31)C2(C)C (stereo partly shown) [Compound 8] | < 100 nM | 33.4 nM |
| CC(C)(C)[C@H](NC(=O)C(F)(F)Cl)C(=O)N1C[C@H]2[C@@H]([C@H]1C(=O)N[C@H](C#N)CC1C(=O)Nc3ccccc31)C2(C)C (stereo partly drawn) [Compound 9, (1R,2S,5S)-3-((S)-2-(2-Chloro-2,2-difluoroacetamido)-3,3-dimethylbutanoyl)-N-((1S)-1-cyano-2-(2-oxoindol-3-yl)ethyl)-6,6-dimethyl-3-azabicyclo[3.1.0]hexane-2-carboxamide] | < 100 nM | 25.2 nM |
| CC1(C)[C@@H]2[C@@H](C(=O)N[C@H](C#N)C[C@@H]3CCNC3=O)N(C(=O)[C@@H](NC(=O)C(F)(F)F)C34C[C@@H]5C[C@@H](CC(O)(C5)C3)C4)C[C@@H]21 [Compound 10, (1R,2S,5S)—N—((S)-1-Cyano-2-((S)-2-oxopyrrolidin-3-yl)ethyl)-3-((S)-2-((1R,3R,5R,7S)-3-hydroxyadamantan-1-yl)-2-(2,2,2-trifluoroacetamido)acetyl)-6,6-dimethyl-3-azabicyclo[3.1.0]hexane-2-carboxamide] | < 100 nM | 69.8 nM |
